Data from patent US20240116962A1, “PYRIDINE-2-AMINE DERIVATIVE AND PHARMACEUTICAL COMPOSITION AND USE THEREOF” (TSINGHUA UNIVERSITY, priority 2020, published 2024).
Read-outs that look alike come from different tables or passages of the source.

Key:
[1] = target: T1, hTLR7 (Homo sapiens, UniProt Q9NYK1); assay: EC50 assay for small molecule agonists, HEK-Blue hTLR7 cells, SEAP readout; format: cell-based; settings: agonist activity
T1 construct: host or cells: HEK-Blue hTLR7 (HEK293-derived reporter cells with SEAP read-out)
T1 sequence (Q9NYK1 27-1049): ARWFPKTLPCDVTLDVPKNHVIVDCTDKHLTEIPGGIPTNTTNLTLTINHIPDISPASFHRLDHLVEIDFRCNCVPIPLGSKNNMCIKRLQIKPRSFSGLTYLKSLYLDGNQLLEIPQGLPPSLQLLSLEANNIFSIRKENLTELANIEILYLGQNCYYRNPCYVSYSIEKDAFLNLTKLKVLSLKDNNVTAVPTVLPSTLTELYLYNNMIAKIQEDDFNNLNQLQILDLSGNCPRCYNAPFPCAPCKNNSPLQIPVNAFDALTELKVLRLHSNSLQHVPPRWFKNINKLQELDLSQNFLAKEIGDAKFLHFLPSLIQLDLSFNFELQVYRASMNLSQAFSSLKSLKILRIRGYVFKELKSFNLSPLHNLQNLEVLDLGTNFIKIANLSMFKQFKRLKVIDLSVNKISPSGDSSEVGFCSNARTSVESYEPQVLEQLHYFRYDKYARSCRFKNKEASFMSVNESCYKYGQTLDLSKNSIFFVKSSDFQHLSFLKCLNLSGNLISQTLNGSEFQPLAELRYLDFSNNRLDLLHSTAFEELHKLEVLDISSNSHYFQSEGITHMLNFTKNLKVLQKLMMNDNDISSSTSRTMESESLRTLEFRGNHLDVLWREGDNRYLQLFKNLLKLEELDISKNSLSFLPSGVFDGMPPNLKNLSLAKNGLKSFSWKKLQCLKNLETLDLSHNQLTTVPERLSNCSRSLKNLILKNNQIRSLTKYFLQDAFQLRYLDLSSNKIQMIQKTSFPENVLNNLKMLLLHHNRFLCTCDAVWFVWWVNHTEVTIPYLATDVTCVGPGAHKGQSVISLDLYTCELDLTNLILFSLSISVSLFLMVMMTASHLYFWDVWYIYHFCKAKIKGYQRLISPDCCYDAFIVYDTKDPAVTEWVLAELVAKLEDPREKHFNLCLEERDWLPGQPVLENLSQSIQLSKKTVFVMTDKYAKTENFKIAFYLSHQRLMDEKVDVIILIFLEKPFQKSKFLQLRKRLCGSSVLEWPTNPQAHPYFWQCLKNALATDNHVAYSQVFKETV
Protocol: (§1) Reagents used for cell culture and detection for HEK-Blue™ hTLR7, HEK-Blue™ hTLR8 and control HEK-Blue Nu112k were as follows: DMEM (4.5 g/L glucose), bovine serum FBS, streptomycin ([…]), penicillin (50 U/mL), Blasticidin (10 mg/mL), Zeocin™ (10 mg/mL), Normocin (50 mg/mL), and HEK-Blue™ Detection. Basal medium was as follows: DMEM +10% FBS+streptomycin+penicillin+Normocin ([…]); selective medium for resistance genes was as follows: DMEM+10% FBS+streptomycin+penicillin+Normocin (1001 μg/mL)+Blasticidin (1001 μg/mL)+Zeocin™ (1001 μg/mL).
(§2) Cell preparation: HEK-Blue™ hTLR7 and HEK-Blue™ hTLR8 cell lines were purchased from Invivogen. The cells frozen in liquid nitrogen were taken, quickly placed in a water bath at 37° C., shaken occasionally, and completely melted within 1 min. The cells were transferred to 15 mL of pre-heated basal medium and resuspended; centrifuged at 1,000 r/min for 5 min, supernatant discarded; resuspended with 1 mL of basal medium, transferred to a T25 culture flask, supplemented to 5 mL with the medium, and incubated in an incubator at 37° C.; after stable passage twice, and subjected to selective antibiotic screening: HEK-Blue™ hTLR7 or HEK-Blue™ hTLR8: 100 μg/mL Zeocin+Blasticidin (30 μg/mL), HEK-Blue Nu112-k: 100 μg/mL Zeocin. The fluid was changed 3 times a week. When the number of cells reached 70%-80%, PBS was added, and the cells were exfoliated by gently pipetting.
(§3) Activity assay steps: (1) adding a test sample to a 96-well plate at 20 μL/well (triplicate wells were set); (2) adding 20 μL of positive control (e.g., R848), and adding 20 μL of negative control (e.g., ddH2O); (3) removing a T75 culture flask from the incubator, discarding the medium, adding 5-10 mL of pre-heated PBS, and gently pipetting the cells; adding 2-5 mL of PBS to the culture flask, incubating the culture flask in the incubator for 1-2 min, and then gently pipetting the cells to make them exfoliated; (4) mixing the mixture well, and counting the cells, without centrifugation; resuspending the cells with HEK-Blue™ assay solution and adjusting the cell number, taking care not to incubate for a long time to avoid too deep background or false positive. HEK-Blue hTLR cell number was about 2.2×10^5/mL, 180 μL/well (about 40000 cells), and HEK-Blue Nu112-k cell number was about 2.8×10^5/mL, 180 μL/well (about 50000 cells). (5) incubating the cells in the incubator at 37° C. for 6-16 h, and detecting at 620-655 nm for SEAP readings.
(§4) Effect %=(mean OD of the administration group−mean OD of the H2O group at each concentration)/(mean ODmax of the positive drug group−mean OD of the H2O group)×100. EC50 was calculated by fitting Lg [concentration]-effect curves using GraphPad Prism5 software.
(§5) Experimental results: the concentration for 50% of maximal effect (EC50) refers to a corresponding concentration of small molecules that can cause 50% of the maximal agonistic effect. […] EC50 represents a potency for agonizing the TLR8 receptor, with smaller values indicating better efficacy. […] In the following table, the unit of the agonist activity is nanomole, unless otherwise specified.

[2] = target: T2, hTLR8 (Homo sapiens, UniProt Q9NR97); assay: EC50 assay for small molecule agonists, HEK-Blue hTLR8 cells, SEAP readout; format: cell-based
T2 construct: host or cells: HEK-Blue hTLR8 (HEK293-derived reporter cells with SEAP read-out)
T2 sequence (Q9NR97 27-1041): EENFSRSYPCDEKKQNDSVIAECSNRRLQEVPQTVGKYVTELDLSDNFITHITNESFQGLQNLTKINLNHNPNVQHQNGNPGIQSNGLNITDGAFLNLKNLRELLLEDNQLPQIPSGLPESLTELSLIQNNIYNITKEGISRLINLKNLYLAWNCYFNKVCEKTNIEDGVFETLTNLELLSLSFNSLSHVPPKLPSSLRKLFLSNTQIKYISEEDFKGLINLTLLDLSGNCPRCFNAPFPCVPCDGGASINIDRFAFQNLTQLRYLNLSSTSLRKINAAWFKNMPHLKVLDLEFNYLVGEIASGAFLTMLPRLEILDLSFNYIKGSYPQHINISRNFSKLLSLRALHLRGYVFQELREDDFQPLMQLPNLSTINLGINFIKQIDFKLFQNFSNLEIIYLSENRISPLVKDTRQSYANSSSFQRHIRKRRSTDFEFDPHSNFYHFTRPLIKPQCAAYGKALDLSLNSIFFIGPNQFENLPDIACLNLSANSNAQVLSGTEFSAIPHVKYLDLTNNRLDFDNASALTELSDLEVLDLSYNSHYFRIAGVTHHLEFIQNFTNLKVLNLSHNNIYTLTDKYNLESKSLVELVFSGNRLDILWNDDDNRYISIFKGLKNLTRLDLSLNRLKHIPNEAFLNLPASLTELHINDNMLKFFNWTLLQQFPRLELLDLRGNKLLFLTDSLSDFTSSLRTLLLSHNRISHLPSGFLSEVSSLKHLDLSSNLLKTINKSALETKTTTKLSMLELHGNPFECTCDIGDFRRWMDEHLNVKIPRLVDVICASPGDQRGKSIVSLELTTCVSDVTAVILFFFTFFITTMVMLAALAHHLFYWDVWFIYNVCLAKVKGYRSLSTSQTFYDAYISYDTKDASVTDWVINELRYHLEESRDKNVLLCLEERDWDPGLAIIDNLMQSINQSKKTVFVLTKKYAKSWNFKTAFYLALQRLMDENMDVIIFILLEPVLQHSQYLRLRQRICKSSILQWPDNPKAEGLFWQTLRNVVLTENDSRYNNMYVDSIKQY
Protocol: as §1, §2, §3, §4, §5

[3] = agonist activity, read-out: hTLR8(EC50)
[4] = read-out: concentration for 50% of maximal effect (EC50) hTLR8

| SMILES | EC50 ([1]; nd = EC50 larger than 25 μM) | EC50 [2, 3] | EC50 [2, 4] | EC50 [1] |
| --- | --- | --- | --- | --- |
| CCCCCc1cc(Cc2ccccc2CN2CCOCC2)c(C)nc1N [Compound N36] | > 25 µM | > 4 µM | – | – |
| CCCCCc1cc(Cc2ccccc2CN)c(C)nc1N [Compound N37] | > 25 µM | > 4 µM | – | – |
| CCCCCc1cc(Cc2ccc(C(=O)N(C)C)cc2)c(C)nc1N [Compound N38] | > 25 µM | > 4 µM | – | – |
| CCCCCc1cc(Cc2ccc(C(=O)N3CCCC3)cc2)c(C)nc1N [Compound N39] | > 25 µM | > 4 µM | – | – |
| CCCCCc1cc(Cc2ccc(C(=O)N3CCOCC3)cc2)c(C)nc1N [Compound N40] | > 25 µM | > 4 µM | – | – |
| CCCCCc1cc(Cc2ccc(C(=O)N3CCN(C)CC3)cc2)c(C)nc1N [Compound N41] | > 25 µM | > 4 µM | – | – |
| CCCCCc1cc(Cc2ccc(CN(C)C)cc2OC)c(C)nc1N [Compound N42] | > 25 µM | 0.087 µM | – | – |
| CCCCCc1cc(Cc2ccc(CN3CCCC3)cc2OC)c(C)nc1N [Compound N43] | > 25 µM | 0.102 µM | – | – |
| CCCCCc1cc(Cc2ccc(CN3CCOCC3)cc2OC)c(C)nc1N [Compound N44] | > 25 µM | 1.13 µM | – | – |
| CCCCCc1cc(Cc2ccc(CN3CCN(C)CC3)cc2OC)c(C)nc1N [Compound N45] | > 25 µM | 0.166 µM | – | – |
| CCCCCc1cc(Cc2ccc(CN(C)C)cc2O)c(C)nc1N [Compound N46] | > 25 µM | 0.351 µM | – | – |
| CCCCCc1cc(Cc2ccc(CN3CCCC3)cc2O)c(C)nc1N [Compound N47] | > 25 µM | 0.473 µM | – | – |
| CCCCCc1cc(Cc2ccc(CN3CCOCC3)cc2O)c(C)nc1N [Compound N48] | > 25 µM | > 4 µM | – | – |
| CCCCCc1cc(Cc2ccc(CN3CCN(C)CC3)cc2O)c(C)nc1N [Compound N49] | > 25 µM | 0.627 µM | – | – |
| CCCCCc1cc(Cc2ccc(CN(C)C)cc2OC(C)=O)c(C)nc1N [Compound N50] | > 25 µM | 0.105 µM | – | – |
| CCCCCc1cc(Cc2ccc(CN3CCCC3)cc2OC(C)=O)c(C)nc1N [Compound N51] | > 25 µM | 0.175 µM | – | – |
| CCCCCc1cc(Cc2ccc(CN(C)C)cc2OC(=O)CC(C)C)c(C)nc1N [Compound N52] | > 25 µM | 0.252 µM | – | – |
| CCCCCc1cc(Cc2ccc(CN3CCN(C)CC3)cc2OC(C)=O)c(C)nc1N [Compound N53] | > 25 µM | 0.273 µM | – | – |
| CCCCCc1cc(CCc2ccc(CN(C)C)cc2)c(C)nc1N [Compound N54] | > 25 µM | 0.518 µM | – | – |
| CCCCNc1cc(Cc2ccc(CN(C)C)cc2)c(C)nc1N [Compound N55] | > 25 µM | – | 0.015 µM | – |
| CCCCNc1cc(Cc2ccc(CN3CCCC3)cc2)c(C)nc1N [Compound N56] | > 25 µM | 0.028 µM | – | – |
| CCCCNc1cc(Cc2ccc(CN3CC4(COC4)C3)cc2)c(C)nc1N [Compound N57] | > 25 µM | 0.016 µM | – | – |
| CCCCNc1cc(Cc2ccc(CN3CC4(COC4)C3)cc2F)c(C)nc1N [Compound N58] | > 25 µM | 0.04 µM | – | – |
| CCCN(CCC)C(=O)C1=Cc2ccc(-c3ccc(C(=O)N4CCCC4)cc3)cc2N=C(N)C1 [VTX2337, reference compound] | – | – | 0.102 µM | > 3 µM |
